Data: US11413292B2, “Tricyclic heterocycle compounds useful as HIV integrase inhibitors” (Merck Sharp & Dohme Corp., priority 2018, dated 2022)
Like-named read-outs stand apart in the source and are kept apart here.

Tested on: HIV-1 (H9/IIIB strain) virus
Assay: microbe, parasite or virus in culture
Type: cell-based
Conditions: MT4-GFP cells infected with HIV-1 H9/IIIB, inhibition of reproductive ratio
[1] = 0% NHS condition (RPMI 1640), read-out: Viking, IC50 (0% NHS)
[2] = 100% normal human serum (NHS) condition, read-out: Viking, IC50 (100% NHS)
[3] = Human immunodeficiency virus 1, IIIB, 0% NHS condition (RPMI 1640), read-out: Viking, IC50 (0% NHS)

| SMILES | IC50 [1] | IC50 [2] | IC50 [3] |
| --- | --- | --- | --- |
| COC1CCN2CN(CC1)n1cc(C(=O)NCc3cccc(Cl)c3F)c(=O)c(O)c1C2=O (single isomer, unassigned) [Example 18D] | 1.5 nM | 230 nM | – |
| O=C(NCc1c(F)cc(F)cc1F)c1cn2c(c(O)c1=O)C(=O)N1CCCCCN2C1 (single isomer, unassigned) [Example 1A, 9-hydroxy-8,10-dioxo-N-(2,4,6-trifluorobenzyl)-3,4,5,6,8,10-hexahydro-2H-1,7-methanopyrido[1,2-b][1,2,5]triazecine-11-carboxamide] | – | 2560 nM | 1.98 nM |
| COC1CCN2CN(CC1)n1cc(C(=O)NCc3c(F)ccc(Cl)c3F)c(=O)c(O)c1C2=O (single isomer, unassigned) [Example 19B] | 5.3 nM | 1880 nM | – |
| O=C(NCc1ccc(F)c(Cl)c1F)c1cn2c(c(O)c1=O)C(=O)N1CCOCCN2C1 [Example 15A] | 3.7 nM | 10700 nM | – |
| COC1CCN2CN(CC1)n1cc(C(=O)NCc3c(F)cccc3F)c(=O)c(O)c1C2=O (single isomer, unassigned) [Example 22C] | 2 nM | 88 nM | – |
| COC1CCN2CN(CC1)n1cc(C(=O)NCc3ccc(F)c(Cl)c3F)c(=O)c(O)c1C2=O (single isomer, unassigned) [Example 21B] | 0.9 nM | 207 nM | – |
| O=C(NCc1ccc(F)cc1F)c1cn2c(c(O)c1=O)C(=O)N1CCCCN2C1 [Example 2A] | 4.04 nM | 4160 nM | – |
| COC1CCN2CN(CC1)n1cc(C(=O)NCc3cccc(F)c3F)c(=O)c(O)c1C2=O (single isomer, unassigned) [Example 23B] | 2.1 nM | 314 nM | – |
| O=C(NCc1ccc(F)cc1F)c1cn2c(c(O)c1=O)C(=O)N1CCCCCCN2C1 (single isomer, unassigned) [Example 3B, N-(2,4-difluorobenzyl)-10-hydroxy-9,11-dioxo-2,3,4,5,6,7,9,11-octahydro-1,8-methanopyrido[1,2-b][1,2,5]triazacycloundecine-12-carboxamide] | 5.23 nM | 1880 nM | – |
| O=C(NCc1ccc(F)c(Cl)c1F)c1cn2c(c(O)c1=O)C(=O)N1CCOCCN2C1 [Example 15B] | 1.61 nM | 224 nM | – |
| O=C(NCc1ccc(F)cc1F)c1cn2c(c(O)c1=O)C(=O)N1CCC(F)(F)CCN2C1 [Example 26B] | 3.2 nM | 91 nM | – |
| COC1CCN2CN(CC1)n1cc(C(=O)NCc3c(F)ccc(Cl)c3F)c(=O)c(O)c1C2=O (single isomer, unassigned) [Example 19C] | 3.5 nM | 245 nM | – |
| COC1CCN2CN(CC1)n1cc(C(=O)NCc3c(F)cc(F)cc3F)c(=O)c(O)c1C2=O (single isomer, unassigned) [Example 5A, 9-hydroxy-4-methoxy-8,10-dioxo-N-(2,4,6-trifluorobenzyl)-3,4,5,6,8,10-hexahydro-2H-1,7-methanopyrido[1,2-b][1,2,5]triazecine-11-carboxamide] | 3.2 nM | 67.2 nM | – |
| O=C(NCc1c(F)cc(F)cc1F)c1cn2c(c(O)c1=O)C(=O)N1CCOCCN2C1 [Example 14B] | 1.66 nM | 157 nM | – |
| O=C(NCc1cccc(Cl)c1F)c1cn2c(c(O)c1=O)C(=O)N1CCOCCN2C1 [Example 13B] | 2.19 nM | 146 nM | – |
| O=C(NCc1ccc(F)cc1F)c1cn2c(c(O)c1=O)C(=O)N1CCCCCCN2C1 (single isomer, unassigned) [Example 3A, N-(2,4-difluorobenzyl)-10-hydroxy-9,11-dioxo-2,3,4,5,6,7,9,11-octahydro-1,8-methanopyrido[1,2-b][1,2,5]triazacycloundecine-12-carboxamide] | – | 589 nM | 2.66 nM |
| O=C(NCc1c(F)ccc(Cl)c1F)c1cn2c(c(O)c1=O)C(=O)N1CCCCCN2C1 [Example 11B] | 2.09 nM | 358 nM | – |
| COC1CCN2CN(CC1)n1cc(C(=O)NCc3ccc(F)c(Cl)c3F)c(=O)c(O)c1C2=O (single isomer, unassigned) [Example 21C] | 1.7 nM | 311 nM | – |
| O=C(NCc1c(F)ccc(Cl)c1F)c1cn2c(c(O)c1=O)C(=O)N1CCOCCN2C1 [Example 16B] | 1.2 nM | 247 nM | – |
| COC1CCN2CN(CC1)n1cc(C(=O)NCc3c(F)ccc(Cl)c3F)c(=O)c(O)c1C2=O (single isomer, unassigned) [Example 19D] | 1.5 nM | 300 nM | – |
| O=C(NCc1ccc(F)c(Cl)c1F)c1cn2c(c(O)c1=O)C(=O)N1CCCCCN2C1 [Example 10A] | 1.89 nM | 8580 nM | – |
| COC1CCN2CN(CC1)n1cc(C(=O)NCc3c(F)cc(F)cc3F)c(=O)c(O)c1C2=O (single isomer, unassigned) [Example 5B, 9-hydroxy-4-methoxy-8,10-dioxo-N-(2,4,6-trifluorobenzyl)-3,4,5,6,8,10-hexahydro-2H-1,7-methanopyrido[1,2-b][1,2,5]triazecine-11-carboxamide] | 1.93 nM | 124 nM | – |
| O=C(NCc1c(F)cc(F)cc1F)c1cn2c(c(O)c1=O)C(=O)N1CCC(O)CCN2C1 (single isomer, unassigned) [Example 17C] | 184 nM | 5920 nM | – |
| COC1CCN2CN(CC1)n1cc(C(=O)NCc3cccc(Cl)c3F)c(=O)c(O)c1C2=O (single isomer, unassigned) [Example 18C] | 3.2 nM | 1870 nM | – |
| O=C(NCc1c(F)cc(F)cc1F)c1cn2c(c(O)c1=O)C(=O)N1CCC(O)CCN2C1 (single isomer, unassigned) [Example 17A] | 66.1 nM | 1270 nM | – |
| CN1CCN2CN(CC1)n1cc(C(=O)NCc3cccc(Cl)c3F)c(=O)c(O)c1C2=O [Example 24A] | 5.1 nM | 665 nM | – |
